The source made the active and inactive calls. The rule behind the calls is not given here.
How the values were obtained:
UACC-257 = experiment: Cytotoxicity against human UACC257 cells assessed as growth inhibition at 10 uM after 24 hrs by SRB assay; assay type: functional
SF-295 = experiment: Cytotoxicity against human SF295 cells assessed as growth inhibition at 10 uM after 24 hrs by SRB assay; assay type: functional; conditions: SF-295, 24 h, read-out: GI
RXF 393 = experiment: Cytotoxicity against human RXF393 cells assessed as growth inhibition at 10 uM after 24 hrs by SRB assay; assay type: functional; conditions: RXF 393, 24 h, read-out: GI
TK-10 = experiment: Cytotoxicity against human TK10 cells assessed as growth inhibition at 10 uM after 24 hrs by SRB assay; assay type: functional
NCI/ADR-RES = experiment: Cytotoxicity against human NCI/ADR-RES cells assessed as growth inhibition at 10 uM after 24 hrs by SRB assay; assay type: functional; conditions: read-out: GI
MCF7 = experiment: Cytotoxicity against human MCF7 cells assessed as growth inhibition at 10 uM after 24 hrs by SRB assay; assay type: functional; conditions: MCF7, 24 h, read-out: GI
SK-OV-3 = experiment: Cytotoxicity against human SKOV3 cells assessed as growth inhibition at 10 uM after 24 hrs by SRB assay; assay type: functional
Ovis aries = species on record: Ovis aries; experiment: Inhibition of sheep tubulin polymerization at 100 uM by fluorescence assay
[1] = Cytotoxicity against human Hs578T cells assessed as growth inhibition at 10 uM after 24 hrs by SRB assay; assay type: functional; conditions: Hs-578T, read-out: GI
SR = experiment: Cytotoxicity against human SR cells assessed as growth inhibition at 10 uM after 24 hrs by SRB assay; assay type: functional
MDA-MB-435 = experiment: Cytotoxicity against human MDA-MB-435 cells assessed as growth inhibition at 10 uM after 24 hrs by SRB assay; assay type: functional
NCI-H460 = experiment: Cytotoxicity against human NCI-H460 cells assessed as growth inhibition at 10 uM after 24 hrs by SRB assay; assay type: functional
786-0 = experiment: Cytotoxicity against human 786-0 cells assessed as growth inhibition at 10 uM after 24 hrs by SRB assay; assay type: functional
UACC-62 = experiment: Cytotoxicity against human UACC62 cells assessed as growth inhibition at 10 uM after 24 hrs by SRB assay; assay type: functional
PC-3 = experiment: Cytotoxicity against human PC3 cells assessed as growth inhibition at 10 uM after 24 hrs by SRB assay; assay type: functional; conditions: PC-3, 24 h, read-out: GI
CCRF-CEM = experiment: Cytotoxicity against human CCRF-CEM cells assessed as growth inhibition at 10 uM after 24 hrs by SRB assay; assay type: functional
HCT-116 = experiment: Cytotoxicity against human HCT116 cells assessed as growth inhibition at 10 uM after 24 hrs by SRB assay; assay type: functional
HOP-92 = experiment: Cytotoxicity against human HOP92 cells assessed as growth inhibition at 10 uM after 24 hrs by SRB assay; assay type: functional
HL-60(TB) = experiment: Cytotoxicity against human HL-60(TB) cells assessed as growth inhibition at 10 uM after 24 hrs by SRB assay; assay type: functional
K562 = experiment: Cytotoxicity against human K562 cells assessed as growth inhibition at 10 uM after 24 hrs by SRB assay; assay type: functional
RPMI-8226 = experiment: Cytotoxicity against human RPMI8226 cells assessed as growth inhibition at 10 uM after 24 hrs by SRB assay; assay type: functional
ACHN = experiment: Cytotoxicity against human ACHN cells assessed as growth inhibition at 10 uM after 24 hrs by SRB assay; assay type: functional; conditions: read-out: GI
OVCAR-3 = experiment: Cytotoxicity against human OVCAR3 cells assessed as growth inhibition at 10 uM after 24 hrs by SRB assay; assay type: functional; conditions: OVCAR-3, 24 h, read-out: GI
SNB-75 = experiment: Cytotoxicity against human SNB75 cells assessed as growth inhibition at 10 uM after 24 hrs by SRB assay; assay type: functional; conditions: SNB-75, 24 h, read-out: GI
T47D = experiment: Cytotoxicity against human T47D cells assessed as growth inhibition at 10 uM after 24 hrs by SRB assay; assay type: functional
U-251 = experiment: Cytotoxicity against human U251 cells assessed as growth inhibition at 10 uM after 24 hrs by SRB assay; assay type: functional
SK-MEL-28 = experiment: Cytotoxicity against human SK-MEL-28 cells assessed as growth inhibition at 10 uM after 24 hrs by SRB assay; assay type: functional; conditions: SK-MEL-28, 24 h, read-out: GI
OVCAR-4 = experiment: Cytotoxicity against human OVCAR4 cells assessed as growth inhibition at 10 uM after 24 hrs by SRB assay; assay type: functional
SF-539 = experiment: Cytotoxicity against human SF539 cells assessed as growth inhibition at 10 uM after 24 hrs by SRB assay; assay type: functional
Malme-3M = experiment: Cytotoxicity against human MALME-3M cells assessed as growth inhibition at 10 uM after 24 hrs by SRB assay; assay type: functional; conditions: read-out: GI
A549 = experiment: Cytotoxicity against human A549 cells assessed as growth inhibition at 10 uM after 24 hrs by SRB assay; assay type: functional; conditions: A549, 24 h, read-out: GI
HOP-62 = experiment: Cytotoxicity against human HOP62 cells assessed as growth inhibition at 10 uM after 24 hrs by SRB assay; assay type: functional; conditions: HOP-62, 24 h, read-out: GI
MDA-MB-231 = experiment: Cytotoxicity against human MDA-MB-231 cells assessed as growth inhibition at 10 uM after 24 hrs by SRB assay; assay type: functional; conditions: MDA-MB-231, 24 h, read-out: GI
NCI-H522 = experiment: Cytotoxicity against human NCI-H522 cells assessed as growth inhibition at 10 uM after 24 hrs by SRB assay; assay type: functional
OVCAR-8 = experiment: Cytotoxicity against human OVCAR8 cells assessed as growth inhibition at 10 uM after 24 hrs by SRB assay; assay type: functional; conditions: OVCAR-8, 24 h, read-out: GI
CAKI-1 = experiment: Cytotoxicity against human CAKI-1 cells assessed as growth inhibition at 10 uM after 24 hrs by SRB assay; assay type: functional; conditions: CAKI-1, 24 h, read-out: GI
NCI-H226 = experiment: Cytotoxicity against human NCI-H226 cells assessed as growth inhibition at 10 uM after 24 hrs by SRB assay; assay type: functional
SK-MEL-5 = experiment: Cytotoxicity against human SK-MEL-5 cells assessed as growth inhibition at 10 uM after 24 hrs by SRB assay; assay type: functional

COc1nc(OC)nc(-c2cc(C(=O)c3ccc(Br)cc3)n3c2ccc2ccccc23)n1
inhibition of growth at 10 µM (UACC-257; UACC-257, 24 h, read-out: GI): 30%
inhibition of growth at 10 µM (SF-295): 59%
inhibition of growth at 10 µM (RXF 393): 61%
growth inhibition (GI) (TK-10): inactive
inhibition of growth at 10 µM (NCI/ADR-RES): 43%
inhibition of growth at 10 µM (MCF7): 44%
growth inhibition (GI) (SK-OV-3): inactive
inhibition (Ovis aries): inactive
inhibition of growth at 10 µM [1]: 56%
growth inhibition (GI) (SR): inactive
growth inhibition (GI) (MDA-MB-435): inactive
inhibition of growth at 10 µM (NCI-H460; NCI-H460, 24 h, read-out: GI): 68%
inhibition of growth at 10 µM (786-0; 786-0, 24 h, read-out: GI): 45%
growth inhibition (GI) (UACC-62): inactive
inhibition of growth at 10 µM (PC-3): 37%
growth inhibition (GI) (CCRF-CEM): inactive
growth inhibition (GI) (HCT-116): inactive
growth inhibition (GI) (HOP-92): inactive
growth inhibition (GI) (HL-60(TB)): inactive
growth inhibition (GI) (K562): inactive
growth inhibition (GI) (RPMI-8226): inactive
inhibition of growth at 10 µM (ACHN): 22%
inhibition of growth at 10 µM (OVCAR-3): 31%
inhibition of growth at 10 µM (SNB-75): 69%
inhibition of growth at 10 µM (T47D; read-out: GI): 31%
growth inhibition (GI) (U-251): inactive
inhibition of growth at 10 µM (SK-MEL-28): 43%
inhibition of growth at 10 µM (OVCAR-4; OVCAR-4, 24 h, read-out: GI): 30%
growth inhibition (GI) (SF-539): inactive
inhibition of growth at 10 µM (Malme-3M): 58%
inhibition of growth at 10 µM (A549): 49%
inhibition of growth at 10 µM (HOP-62): 79%
inhibition of growth at 10 µM (MDA-MB-231): 80%
growth inhibition (GI) (NCI-H522): inactive
inhibition of growth at 10 µM (OVCAR-8): 50%
inhibition of growth at 10 µM (CAKI-1): 33%
inhibition of growth at 10 µM (NCI-H226; NCI-H226, 24 h, read-out: GI): 35%
growth inhibition (GI) (SK-MEL-5): inactive

COc1nc(OC)nc(-c2cc(C(=O)c3cc(OC)c(OC)c(OC)c3)n3c(C)cccc23)n1
growth inhibition (GI) (UACC-257): inactive
inhibition of growth at 10 µM (SF-295): 15%
inhibition of growth at 10 µM (RXF 393): 31%
growth inhibition (GI) (TK-10): inactive
inhibition of growth at 10 µM (NCI/ADR-RES): 15%
inhibition of growth at 10 µM (MCF7): 55%
inhibition of growth at 10 µM (SK-OV-3; SK-OV-3, 24 h, read-out: GI): 18%
inhibition (Ovis aries): inactive
inhibition of growth at 10 µM [1]: 17%
inhibition of growth at 10 µM (SR; read-out: GI): 67%
inhibition of growth at 10 µM (MDA-MB-435; MDA-MB-435, 24 h, read-out: GI): 86%
growth inhibition (GI) (NCI-H460): inactive
growth inhibition (GI) (786-0): inactive
inhibition of growth at 10 µM (UACC-62; UACC-62, 24 h, read-out: GI): 30%
inhibition of growth at 10 µM (PC-3): 19%
inhibition of growth at 10 µM (CCRF-CEM; read-out: GI): 10%
inhibition of growth at 10 µM (HCT-116; HCT-116, 24 h, read-out: GI): 15%
growth inhibition (GI) (HOP-92): inactive
inhibition of growth at 10 µM (HL-60(TB); HL-60, 24 h, read-out: GI): 33%
inhibition of growth at 10 µM (K562; K562, 24 h, read-out: GI): 45%
inhibition of growth at 10 µM (RPMI-8226; RPMI-8226, 24 h, read-out: GI): 10%
inhibition of growth at 10 µM (ACHN): 30%
inhibition of growth at 10 µM (OVCAR-3): 19%
inhibition of growth at 10 µM (SNB-75): 67%
growth inhibition (GI) (T47D): inactive
growth inhibition (GI) (U-251): inactive
inhibition of growth at 10 µM (SK-MEL-28): 14%
growth inhibition (GI) (OVCAR-4): inactive
inhibition of growth at 10 µM (SF-539; SF-539, 24 h, read-out: GI): 14%
inhibition of growth at 10 µM (Malme-3M): 37%
inhibition of growth at 10 µM (A549): 17%
inhibition of growth at 10 µM (HOP-62): 34%
inhibition of growth at 10 µM (MDA-MB-231): 17%
inhibition of growth at 10 µM (NCI-H522; NCI-H522, 24 h, read-out: GI): 56%
inhibition of growth at 10 µM (OVCAR-8): 12%
inhibition of growth at 10 µM (CAKI-1): 11%
growth inhibition (GI) (NCI-H226): inactive
inhibition of growth at 10 µM (SK-MEL-5; SK-MEL-5, 24 h, read-out: GI): 41%
